According to ChEMBL document CHEMBL4382203, “Discovery, cocrystallization and biological evaluation of novel piperidine derivatives as high affinity Ls-AChBP ligands possessing α7 nAChR activities” (Eur J Med Chem, 2018):
Calls of active or inactive are those of the source. No cut-off for these calls is given here.

What was measured:
[1] = target: Acetylcholine-binding protein (Lymnaea stagnalis, UniProt P58154); assay: Displacement of [3H]epibatidine from Lymnaea stagnalis acetylcholine-binding protein incubated for 60 mins followed by 3 hrs incubation in dark condition by microbeta counting analysis
[2] = target: T1, Neuronal acetylcholine receptor subunit alpha-7 (Homo sapiens, UniProt P36544); assay: Partial agonist activity at human alpha7 nAChR at 100 uM at -60 mV holding potential incubated for 1 sec followed by 60 secs compound washout relative to acetylcholine
[3] = target: Acetylcholine-binding protein (Lymnaea stagnalis) (UniProt P58154); assay: Displacement of [3H]epibatidine from Lymnaea stagnalis acetylcholine-binding protein at 100 nM incubated for 60 mins followed by 3 hrs incubation in dark condition by microbeta counting analysis relative to control
[4] = target: T1, Neuronal acetylcholine receptor subunit alpha-7; assay: Antagonist activity at human alpha7 nAChR assessed as inhibition of acetylcholine-induced response at 100 uM at -60 mV holding potential incubated for 30 secs followed by acetylcholine addition and subsequent compound washout for 30 secs relative to acetylcholine
[5] = target: T1, Neuronal acetylcholine receptor subunit alpha-7; assay: Antagonist activity at human alpha7 nAChR assessed as inhibition of acetylcholine-induced response at 1 uM at -60 mV holding potential incubated for 30 secs followed by acetylcholine addition and subsequent compound washout for 30 secs relative to acetylcholine
[6] = target: Neuronal acetylcholine receptor; alpha4/beta2 (Homo sapiens) (UniProt P17787+P43681); assay: Agonist activity at alpha4beta2 nAChR (unknown origin) at -60 mV holding potential incubated for 1 sec followed by 60 secs compound washout; type: protein-complex assay
[7] = target: T1, Neuronal acetylcholine receptor subunit alpha-7; assay: Partial agonist activity at human alpha7 nAChR at -60 mV holding potential incubated for 1 sec followed by 60 secs compound washout
[8] = AUC (0 to infinity) in ICR mouse at 2 mg/kg, iv; type: ADME, organism-based; design: dose 2 mg/kg, route intravenous, time infinity; conditions: in vivo
[9] = Clearance in ICR mouse at 2 mg/kg, iv; type: ADME, organism-based; conditions: in vivo
[10] = Apparent volume of distribution in ICR mouse at 2 mg/kg, iv; type: ADME, organism-based; conditions: in vivo, read-out: Vz
[11] = Half life in ICR mouse at 2 mg/kg, iv; type: ADME, organism-based; conditions: in vivo
[12] = Tmax in ICR mouse at 2 mg/kg, iv; type: ADME, organism-based; conditions: in vivo
[13] = Ratio of drug level in blood to plasma in ICR mouse at 2 mg/kg, iv after 4 hrs; type: ADME, organism-based; conditions: blood and plasma
[14] = Cmax in ICR mouse at 2 mg/kg, iv; type: ADME, organism-based; design: dose 2 mg/kg, route intravenous; conditions: in vivo
[15] = AUC (0 to infinity) in ICR mouse at 10 mg/kg, po; type: ADME, organism-based; design: dose 10 mg/kg, time infinity, route oral; conditions: in vivo
[16] = Half life in ICR mouse at 10 mg/kg, po; type: ADME, organism-based; conditions: in vivo
[17] = Tmax in ICR mouse at 10 mg/kg, po; type: ADME, organism-based; conditions: in vivo
[18] = Cmax in ICR mouse at 10 mg/kg, po; type: ADME, organism-based; design: dose 10 mg/kg, route oral; conditions: in vivo
[19] = Oral bioavailability in ICR mouse at 10 mg/kg; type: ADME, organism-based; conditions: in vivo
[20] = Ratio of drug level in blood to plasma in ICR mouse at 10 mg/kg, po after 4 hrs; type: ADME, organism-based; conditions: blood and plasma
[21] = target: T1, Neuronal acetylcholine receptor subunit alpha-7; assay: Partial agonist activity at human alpha7 nAChR expressed in Xenopus laevis oocytes at holding potential of -90 mV by patch clamp electrophysiological method; type: cell-based
[22] = target: T1, Neuronal acetylcholine receptor subunit alpha-7; assay: Partial agonist activity at human alpha7 nAChR expressed in Xenopus laevis oocytes by voltage clamp electrophysiological method; type: cell-based

Sequence of Acetylcholine-binding protein (P58154 whole entry): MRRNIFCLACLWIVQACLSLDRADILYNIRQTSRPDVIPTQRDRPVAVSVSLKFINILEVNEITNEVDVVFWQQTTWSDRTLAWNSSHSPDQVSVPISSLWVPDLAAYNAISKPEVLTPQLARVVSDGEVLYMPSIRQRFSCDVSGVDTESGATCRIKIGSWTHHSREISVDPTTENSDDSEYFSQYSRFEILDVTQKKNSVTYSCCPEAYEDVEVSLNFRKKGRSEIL
Sequence of Acetylcholine-binding protein (Lymnaea stagnalis) (P58154 whole entry): as above
T1 sequence (P36544 whole entry): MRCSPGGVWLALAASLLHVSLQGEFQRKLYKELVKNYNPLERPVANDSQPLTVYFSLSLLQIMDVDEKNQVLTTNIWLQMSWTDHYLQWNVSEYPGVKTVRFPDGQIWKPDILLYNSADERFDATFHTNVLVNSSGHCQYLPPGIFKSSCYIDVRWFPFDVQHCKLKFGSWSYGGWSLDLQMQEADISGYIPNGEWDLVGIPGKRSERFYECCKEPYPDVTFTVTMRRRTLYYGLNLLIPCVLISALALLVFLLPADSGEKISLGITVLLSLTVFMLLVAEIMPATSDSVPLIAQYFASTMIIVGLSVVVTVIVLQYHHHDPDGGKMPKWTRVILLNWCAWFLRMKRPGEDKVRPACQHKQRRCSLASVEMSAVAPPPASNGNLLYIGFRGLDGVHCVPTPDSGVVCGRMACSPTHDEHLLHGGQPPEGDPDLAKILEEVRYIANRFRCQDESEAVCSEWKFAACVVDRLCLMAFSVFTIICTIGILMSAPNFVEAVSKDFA

Structure (SMILES) | Ki [1] [µM] | Efficacy [2] [%] | also measured
FC(F)(F)c1ccc(CC2(COc3cccnc3)CCCNC2)cc1 (centres undefined) | 0.0119 | 17.5 | 
Clc1cccc(CC2(COc3cccnc3)CCCNC2)c1Cl (centres undefined) | 0.00602 | 19.5 | 
Clc1cccc(CC2(COc3ccc4c(c3)[nH]c3ccccc34)CCCNC2)c1 (centres undefined) | > 0.0677 |  | inhibition [3]: < 50%
OCCCCC#Cc1ccc(OCC2(Cc3cccc(Cl)c3)CCCNC2)cn1 (centres undefined) | 0.016 | 8.5 | 
Clc1cccc(CC2(COc3cncnc3)CCCNC2)c1 (centres undefined) | 0.00522 |  | 
Clc1cccc(CC2(COc3ccncc3)CCCNC2)c1 (centres undefined) | 0.0165 |  | 
OCCCCC#Cc1cncc(OCC2(Cc3cccc(Cl)c3)CCCNC2)c1 (centres undefined) | 0.00347 | 4.5 | inhibition [4]: 97.3%; inhibition [5]: 12.8%; Activity [6]: inactive
Cc1cccc(CC2(COc3cccnc3)CCCNC2)c1 (centres undefined) | 0.0124 | 14.8 | 
FC(F)(F)c1ccccc1CC1(COc2cccnc2)CCCNC1 (centres undefined) | 0.0172 | 13.5 | 
Clc1cccc(CC2(COc3ccc(Cl)nc3)CCCNC2)c1 (centres undefined) | 0.00339 | 4.4 | 
Clc1ccc(C[C@@]2(COc3cccnc3)CCCNC2)cc1Cl | 0.00086 | 33.3 | Emax [2]: 36.1%; EC50 [7]: 20.4 µM; AUC(0-inf) [8]: 700 nM·h; clearance [9]: 7.72 L/h/kg; Vd [10]: 13.3 L/kg; half-life [11]: 72 min; Tmax [12]: 4.8 min; blood plasma ratio at 4 h [13]: 8.8; Cmax [14]: 1 µM; AUC(0-inf) [15]: 1900 nM·h; half-life [16]: 102 min; Tmax [17]: 30 min; Cmax [18]: 1.1 µM; bioavailability [19]: 51.2%; blood plasma ratio at 4 h [20]: 5.1; Activity [6]: inactive
OCCC#Cc1ccc(OCC2(Cc3cccc(Cl)c3)CCCNC2)cn1 (centres undefined) | 0.029 |  | 
Clc1ccc(CC2(COc3cccnc3)CCCNC2)cc1 (centres undefined) | 0.00977 | 18.2 | 
Cc1ccc(CC2(COc3cccnc3)CCCNC2)cc1 (centres undefined) | 0.0165 | 13 | 
Cc1ccc(-c2ccc(O[C@H]3CN4CCC3CC4)cn2)cc1 |  |  | EC50 [21]: 0.039 µM
Cc1ccccc1CC1(COc2cccnc2)CCCNC1 (centres undefined) | 0.0188 | 12.8 | 

Structure (SMILES) | Ki [1] [µM] | Efficacy [2] [%] | also measured
OCCCC#Cc1cncc(OCC2(Cc3cccc(Cl)c3)CCCNC2)c1 (centres undefined) | 0.0125 |  | 
Clc1ccccc1CC1(COc2cccnc2)CCCNC1 (centres undefined) | 0.013 | 16.8 | 
c1ccc(-c2ccc(CC3(COc4cccnc4)CCCNC3)cc2)cc1 (centres undefined) | 0.0117 | 7.9 | inhibition [4]: 96.5%; inhibition [5]: 53.4%
Clc1ccc(CC2(COc3cccnc3)CCNCC2)cc1Cl |  | 3.1 | inhibition [4]: 94%; inhibition [5]: 27.2%; Activity [6]: inactive
Clc1cccc(CC2(COc3ccccn3)CCCNC2)c1 (centres undefined) | > 0.0677 |  | inhibition [3]: < 50%
Clc1cccc(CC2(COc3ccc(Br)nc3)CCCNC2)c1 (centres undefined) | 0.0114 |  | 
Clc1ccc(C[C@]2(COc3cccnc3)CCCNC2)cc1Cl | 0.0262 | 5.5 | inhibition [4]: 90.8%; inhibition [5]: 27.2%; Activity [6]: inactive
FC(F)(F)c1cccc(CC2(COc3cccnc3)CCCNC2)c1 (centres undefined) | 0.00593 | 28 | Activity [6]: inactive
OCCC#Cc1cncc(OCC2(Cc3cccc(Cl)c3)CCCNC2)c1 (centres undefined) | 0.00557 |  | 
Clc1cccc(CC2(COc3cccnc3)CCCNC2)c1 (centres undefined) | 0.0053 | 33.8 | 
Clc1ccc(CC2(COc3cccnc3)CCCNC2)cc1Cl (centres undefined) | 0.00227 |  | 
Clc1cccc(CC2(COc3cncc(-c4ccccc4)c3)CCCNC2)c1 (centres undefined) | > 0.0677 |  | inhibition [3]: < 50%
Clc1cccc(CC2(COc3cncc(Br)c3)CCCNC2)c1 (centres undefined) | 0.0222 |  | 
O=C(N[C@H]1CN2CCC1CC2)c1cc2cccc(Cl)c2s1 [ENCENICLINE] |  |  | EC50 [22]: 0.39 µM
OCCCC#Cc1ccc(OCC2(Cc3cccc(Cl)c3)CCCNC2)cn1 (centres undefined) | > 0.0677 |  | inhibition [3]: < 50%
